Like-named read-outs stand apart in the source and are kept apart here.

For three molecules, Emax and EC50 results are on record in US20230265151A1, “GIP/GLP1 CO-AGONIST COMPOUNDS” (priority 2020, published 2023).

Type in all cases: cell-based
For experiment [1], the target named is T1, hGIPR (Homo sapiens, UniProt P48546).
T1 construct: expressed in transfected cells
T1 sequence (P48546 22-466): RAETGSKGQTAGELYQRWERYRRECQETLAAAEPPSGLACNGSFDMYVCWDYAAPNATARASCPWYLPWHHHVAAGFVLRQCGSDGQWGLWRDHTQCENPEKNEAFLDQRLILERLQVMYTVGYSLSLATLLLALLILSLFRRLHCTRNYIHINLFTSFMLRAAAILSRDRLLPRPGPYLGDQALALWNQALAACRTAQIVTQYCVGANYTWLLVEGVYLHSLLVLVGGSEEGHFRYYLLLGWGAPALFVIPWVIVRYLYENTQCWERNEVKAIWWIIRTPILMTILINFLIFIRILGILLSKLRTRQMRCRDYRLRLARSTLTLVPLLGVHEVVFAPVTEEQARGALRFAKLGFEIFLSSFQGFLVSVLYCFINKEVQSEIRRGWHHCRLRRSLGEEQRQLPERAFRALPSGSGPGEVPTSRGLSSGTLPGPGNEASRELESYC
Kind of experiment: Functional cAMP formation (HTRF) in HEK-293 clonal cells expressing hGIPR, 0.1% bovine casein, without or with 1.0% human serum albumin. The settings on record: for EC50: geometric mean. Summed up:
(§1)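 Cells were stimulated with peptide for 30 min at 37° C, then lysed in buffer carrying cAMP-d2 and anti-cAMP Eu3+-cryptate for a competitive HTRF read after at least 60 min at room temperature. The 665/620 nm ratio was converted to nM cAMP against a standard curve.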
For orientation: cAMP levels reflect the balance of adenylyl cyclase and phosphodiesterase activity.

Experiment [2] deals with hGLP-1R (Homo sapiens, UniProt P43220). Kind of experiment: Functional cAMP formation (HTRF) in HEK-293 clonal cells expressing hGLP-1R, 0.1% bovine casein, without or with 1.0% human serum albumin. Details: expressed in transfected cells. Conditions: for Emax: percent of maximal response to GLP-1(7-36)NH2. Summed up: as §1
Experiment [3] has as its target T2, hGCGR (Homo sapiens, UniProt P47871).
T2 construct: expressed in transfected cells
Kind of experiment: Functional cAMP formation (HTRF) in HEK-293 clonal cells expressing hGCGR, 0.1% bovine casein, without or with 1.0% human serum albumin. A digest of the protocol:
as §1

The mark [4] stands for this setting: HEK293, cAMP, 37° C., 0.1% bovine casein and 1.0% human serum albumin, percent of maximal response to GIP(1-42)NH2, read-out: hGIPR Emax, % ± SEM.
Where [5] appears, read: cAMP, 37° C., 0.1% bovine casein (no human serum albumin), read-out: hGIPR EC50, nM (SEM, n).
The mark [6] stands for this setting: cAMP, 37° C., 0.1% bovine casein (no human serum albumin), geometric mean, read-out: hGLP-1R EC50, nM (SEM, n).
[7] abbreviates: cAMP, 37° C., 0.1% bovine casein (no human serum albumin), geometric mean, read-out: hGCGR EC50, nM (SEM, n).
Setting [8] is: cAMP, 37° C., 0.1% bovine casein and 1.0% human serum albumin, geometric mean (SEM, n), read-out: hGCGR EC50, nM (SEM, n).

T2 sequence (P47871 26-477): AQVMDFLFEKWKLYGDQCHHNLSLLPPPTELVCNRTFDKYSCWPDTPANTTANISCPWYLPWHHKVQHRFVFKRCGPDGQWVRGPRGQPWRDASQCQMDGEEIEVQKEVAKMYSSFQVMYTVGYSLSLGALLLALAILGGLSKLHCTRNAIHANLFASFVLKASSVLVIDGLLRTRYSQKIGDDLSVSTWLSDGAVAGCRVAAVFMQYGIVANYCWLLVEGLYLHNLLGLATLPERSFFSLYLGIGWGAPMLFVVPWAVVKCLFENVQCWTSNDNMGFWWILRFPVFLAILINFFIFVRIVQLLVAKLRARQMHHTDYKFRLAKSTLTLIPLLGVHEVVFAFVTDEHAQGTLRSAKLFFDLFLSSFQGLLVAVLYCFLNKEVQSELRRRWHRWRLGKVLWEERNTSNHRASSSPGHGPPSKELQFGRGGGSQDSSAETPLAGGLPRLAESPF
Sequence of hGLP-1R (P43220 24-463): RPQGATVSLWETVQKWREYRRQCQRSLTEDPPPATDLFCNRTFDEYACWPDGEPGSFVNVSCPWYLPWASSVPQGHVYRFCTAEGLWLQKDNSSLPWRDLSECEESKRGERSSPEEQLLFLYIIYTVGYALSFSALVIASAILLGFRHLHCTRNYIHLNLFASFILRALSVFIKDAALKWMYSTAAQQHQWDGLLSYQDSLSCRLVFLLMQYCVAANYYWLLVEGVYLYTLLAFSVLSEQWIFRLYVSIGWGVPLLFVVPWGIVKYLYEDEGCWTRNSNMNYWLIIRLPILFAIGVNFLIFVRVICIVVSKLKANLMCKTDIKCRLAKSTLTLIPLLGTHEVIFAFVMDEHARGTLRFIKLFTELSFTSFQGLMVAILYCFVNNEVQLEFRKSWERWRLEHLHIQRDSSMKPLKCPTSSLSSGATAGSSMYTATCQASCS

A word on the Emax: it is the size of the effect at its maximum, as opposed to the concentration needed. As a reminder, the EC50 is the concentration needed to bring the measured effect to its halfway point. For the molecule `CC[C@H](C)[C@H](NC(=O)[C@H](CCCN)NC(=O)[C@H](CC(=O)O)NC(=O)[C@H](CC(C)C)NC(=O)[C@](C)(CC(C)C)NC(=O)[C@@H](NC(=O)[C@H](CO)NC(=O)[C@H](Cc1ccncc1)NC(=O)[C@H](CC(=O)O)NC(=O)[C@H](CO)NC(=O)[C@@H](NC(=O)[C@](C)(Cc1ccccc1F)NC(=O)[C@@H](NC(=O)CNC(=O)[C@H](CCC(=O)O)NC(=O)C(C)(C)NC(=O)[C@@H](N)Cc1ccc(O)cc1)[C@@H](C)O)[C@@H](C)O)[C@@H](C)CC)C(=O)N[C@@H](C)C(=O)N[C@@H](CCC(N)=O)C(=O)NC(C)(C)C(=O)N[C@@H](CCC(=O)O)C(=O)N[C@@H](Cc1ccccc1)C(=O)N[C@H](C(=O)N[C@@H](CCCCNC(=O)COCCOCCNC(=O)COCCOCCNC(=O)CC[C@H](NC(=O)CCCCCCCCCCCCC(=O)O)C(=O)O)C(=O)N[C@@](C)(Cc1ccc(O)cc1)C(=O)N[C@@H](CC(C)C)C(=O)N[C@H](C(=O)N[C@@H](CCC(=O)O)C(=O)NCC(=O)NCC(=O)N1CCC[C@H]1C(=O)N[C@@H](CO)C(=O)N[C@@H](CO)C(=O)NCC(=O)N[C@@H](C)C(=O)N1CCC[C@H]1C(=O)N1CCC[C@H]1C(=O)N1CCC[C@H]1C(=O)N[C@@H](CO)C(=O)N[C@@H](CCCCNC(=O)COCCOCCNC(=O)COCCOCCNC(=O)CC[C@H](NC(=O)CCCCCCCCCCCCC(=O)O)C(=O)O)C(N)=O)[C@@H](C)CC)[C@@H](C)CC` [Example 72], the Emax in experiment [1] (HEK293, read-out: hGIPR Emax, % ± SEM, 0.1% bovine casein and 1.0% human serum albumin, 37° C., percent of maximal response to GIP(1-42)NH2) turned out to be 95.9%; in experiment [1] (HEK293, read-out: hGIPR Emax, % ± SEM, percent of maximal response to GIP(1-42)NH2, 37° C., 0.1% bovine casein, arithmetic mean) it was 96.5 ± 3.71%; in experiment [2] (HEK293, read-out: hGLP-1R Emax, % ± SEM, 0.1% bovine casein and 1.0% human serum albumin, 37° C.), 98.8%. The concentration giving a half-maximal response (EC50) in experiment [1] (hGIPR EC50, nM (SEM, n), 0.1% bovine casein and 1.0% human serum albumin, 37° C.) is 3.55 nM; in experiment [2] (hGLP-1R EC50, nM (SEM, n), 0.1% bovine casein and 1.0% human serum albumin, 37° C., geometric mean), 40.1 nM; in experiment [2] (hGLP-1R EC50, nM (SEM, n), cAMP, incubated at 37° C., 0.1% bovine casein (no human serum albumin), geometric mean), 0.245 nM; in experiment [3] (hGCGR EC50, nM (SEM, n), 0.1% bovine casein and 1.0% human serum albumin, 37° C., geometric mean), > 9950 nM; in experiment [3] (hGCGR EC50, nM (SEM, n), cAMP, incubated at 37° C., 0.1% bovine casein (no human serum albumin), geometric mean), > 9950 nM.
As for `CC[C@H](C)[C@H](NC(=O)[C@H](CC(C)C)NC(=O)[C@](C)(Cc1ccc(O)cc1)NC(=O)[C@@H](CCC(=O)O)NC(=O)[C@@H](NC(=O)[C@H](Cc1ccccc1)NC(=O)[C@H](CCCCNC(=O)CCOCCOCCOCCNC(=O)CC[C@H](NC(=O)CCCCCCCCCCCCC(=O)O)C(=O)O)NC(=O)C(C)(C)NC(=O)[C@H](CCC(N)=O)NC(=O)[C@H](C)NC(=O)[C@H](CCCCNC(=O)CCOCCOCCOCCNC(=O)CC[C@H](NC(=O)CCCCCCCCCCCCC(=O)O)C(=O)O)NC(=O)[C@H](CCCN)NC(=O)[C@H](CC(=O)O)NC(=O)[C@H](CC(C)C)NC(=O)[C@](C)(CC(C)C)NC(=O)[C@@H](NC(=O)C(C)(C)NC(=O)[C@H](Cc1ccncc1)NC(=O)[C@H](CC(=O)O)NC(=O)[C@H](CO)NC(=O)[C@@H](NC(=O)[C@](C)(Cc1ccccc1F)NC(=O)[C@@H](NC(=O)CNC(=O)[C@H](CCC(=O)O)NC(=O)C(C)(C)NC(=O)[C@@H](N)Cc1ccc(O)cc1)[C@@H](C)O)[C@@H](C)O)[C@@H](C)CC)[C@@H](C)CC)C(=O)N[C@@H](CCC(=O)O)C(=O)NCC(=O)NCC(=O)N1CCC[C@H]1C(=O)N[C@@H](CO)C(=O)N[C@@H](CO)C(=O)NCC(=O)N[C@@H](C)C(=O)N1CCC[C@H]1C(=O)N1CCC[C@H]1C(=O)N1CCC[C@H]1C(=O)N[C@@H](CO)C(N)=O` [Example 404], the Emax in experiment [1] (setting [4]) was determined as 77.3%; in experiment [2] (HEK293, cAMP, 37° C., 0.1% bovine casein, arithmetic mean, read-out: hGLP-1R Emax, % ± SEM) it was 94.3%. Moreover, the EC50 in experiment [1] (setting [5]) was 0.014 nM; in experiment [2] (setting [6]), 0.632 nM; in experiment [3] (setting [7]), > 9950 nM; in experiment [3] (setting [8]), > 9950 nM.
In the case of `CCCCCCCCCCCC(=O)N[C@@H](CCC(=O)NCCOCCOCC(=O)NCCCC[C@H](NC(=O)[C@H](CO)NC(=O)[C@@H]1CCCN1C(=O)[C@@H]1CCCN1C(=O)[C@@H]1CCCN1C(=O)[C@H](C)NC(=O)CNC(=O)[C@H](CO)NC(=O)[C@H](CO)NC(=O)[C@@H]1CCCN1C(=O)CNC(=O)CNC(=O)[C@H](CCC(=O)O)NC(=O)[C@@H](NC(=O)[C@H](CC(C)C)NC(=O)[C@](C)(Cc1ccc(O)cc1)NC(=O)[C@@H](CCC(=O)O)NC(=O)[C@@H](NC(=O)[C@H](Cc1ccccc1)NC(=O)[C@H](CCC(=O)O)NC(=O)C(C)(C)NC(=O)[C@H](CCC(N)=O)NC(=O)[C@H](C)NC(=O)[C@H](CCCCNC(=O)COCCOCCNC(=O)CC[C@H](NC(=O)CCCCCCCCCCC)C(=O)O)NC(=O)[C@H](CCCN)NC(=O)[C@H](CC(=O)O)NC(=O)[C@H](CC(C)C)NC(=O)[C@](C)(CC(C)C)NC(=O)[C@@H](NC(=O)C(C)(C)NC(=O)[C@H](Cc1ccncc1)NC(=O)[C@H](CC(=O)O)NC(=O)[C@H](CO)NC(=O)[C@@H](NC(=O)[C@](C)(Cc1ccccc1F)NC(=O)[C@@H](NC(=O)CNC(=O)[C@H](CCC(=O)O)NC(=O)C(C)(C)NC(=O)[C@@H](N)Cc1ccc(O)cc1)[C@@H](C)O)[C@@H](C)O)[C@@H](C)CC)[C@@H](C)CC)[C@@H](C)CC)C(N)=O)C(=O)O` [Example 428], the Emax in experiment [1] (setting [4]) amounted to 93.6%; in experiment [1] (HEK293, cAMP, 37° C., 0.1% bovine casein, percent of maximal response to GIP(1-42)NH2, arithmetic mean, read-out: hGIPR Emax, % ± SEM), 95.5%; in experiment [2] (HEK293, cAMP, 37° C., 0.1% bovine casein and 1.0% human serum albumin, read-out: hGLP-1R Emax, % ± SEM), 105%. Besides, the EC50 in experiment [1] (setting [5]) was 0.00797 nM; in experiment [2] (setting [6]), 0.102 nM; in experiment [2] (cAMP, 37° C., 0.1% bovine casein and 1.0% human serum albumin, geometric mean (SEM, n), read-out: hGLP-1R EC50, nM (SEM, n)) it was 10.2 nM; in experiment [3] (setting [7]), > 9950 nM; in experiment [3] (setting [8]) it was > 9950 nM.
